Assay results published in patent US20250121099A1, “CLOSO-DODECAIODODECABORATE COMPLEXES AND METHODS OF USE FOR SAME” (The Regents of the University of California, priority 2022, published 2025).
Entries after “also recorded” stand apart in the source; their conditions may differ. Where two headings read alike, the source gives them in different places.

What was measured:
[1] = cited from earlier work
[2] = tested on: human red blood cells (RBCs); assay: Hemolytic activity of Na2B12I12 (Hb release from RBCs); assay type: cell-based
Source text: General methods. Na2B12I12 was obtained from Katchem, γ-cyclodextrin (γ-CD) was obtained from Combi-Blocks, 2-hydroxypropyl-γ-cyclodextrin (HP-γ-CD; 0.6 functionalized, average Mw=1580 Da) was obtained from Sigma-Aldrich, phosphate-buffered saline (PBS) was obtained from Fisher Scientific. The reagents were used as received. D2O was obtained from Cambridge Isotopes. Washed single-donor human red blood cells (RBCs) were obtained from Innovative Research. These are RBCs that have been separated from type 0 positive whole blood and resuspended in Alsever's Solution. Defibrinated bovine blood was obtained from HemoStat Laboratories. All experiments were performed under ambient conditions. NMR spectra were collected using a Bruker Avance III HD 500 spectrometer equipped with a multinuclear Smart Probe. The frequencies of the ^1H and ^11B NMR signals are reported in ppm as chemical shifts from TMS and BF3·Et2O, respectively. Electronic absorption spectra were recorded on VWR UV-6300PC double beam spectrophotometer. Stability of Na2B12I12: refluxing PBS. A 500 μL aliquot of a 10 mM solution of Na2B12I12 in PBS (pH 7.4) was placed in an oil bath pre-heated to 100° C. After incubating in this bath for 1 h, the sample was removed, cooled to room temperature, and spiked with 50 μL D2O prior to acquiring a ^11B NMR spectrum. Stability of Na2B12I12: human RBCs. A 275 μL aliquot of a 20 mM solution of Na2B12I12 in PBS (pH 7.4) was added to a 225 μL suspension of human RBCs. The mixture was allowed to stand at room temperature for 24 h. It was then spiked with 50 μL D2O prior to acquiring a ^11B NMR spectrum. […] Stability of Na2B12I12: bovine serum. A 1 mL aliquot of defibrinated bovine blood was centrifuged for 15 s at 15,850×g. A 225 μL aliquot of the serum supernatant was combined with a 275 μL aliquot of a 20 mM solution of Na2B12I12 in PBS (pH 7.4). The mixture was allowed to stand at room temperature for 24 h. It was then spiked with 50 μL D2O prior to acquiring a ^11B NMR spectrum. Stability of Na2B12I12: bovine blood. A 225 μL aliquot of defibrinated bovine blood was combined with a 275 μL aliquot of a 20 mM solution of Na2B12I12 in PBS (pH 7.4). The mixture was allowed to stand at room temperature for 24 h. It was then spiked with 50 μL D2O prior to acquiring a ^11B NMR spectrum. Job plot of HP-γ-CD and Na2B12I12. Solutions of Na2B12I12 (20 mM) and […] (20 mM) were prepared in PBS (pH 7.4). […] Each sample was spiked with D2O and analyzed by ^11B NMR spectroscopy. […] The absorbance of this solution was measured from 700 to 350 nm. The subsequent samples were then measured in turn. […] The absorbance corresponding to 100% lysis was confirmed by adding a 10 μL aliquot of freshly resuspended RBCs to 250 μL of hemolysis buffer (0.15 M NH4Cl and 10 mM KHCO3). […]

[3] = Stability of Na2B12I12: refluxing PBS (11B NMR); assay type: physicochemical; details: refluxing in PBS pH 7.4 (100° C.) for 1 hour
Source text: (§1) General methods. Na2B12I12 was obtained from Katchem, γ-cyclodextrin (γ-CD) was obtained from Combi-Blocks, 2-hydroxypropyl-γ-cyclodextrin (HP-γ-CD; 0.6 functionalized, average Mw=1580 Da) was obtained from Sigma-Aldrich, phosphate-buffered saline (PBS) was obtained from Fisher Scientific. The reagents were used as received. D2O was obtained from Cambridge Isotopes. Washed single-donor human red blood cells (RBCs) were obtained from Innovative Research. These are RBCs that have been separated from type 0 positive whole blood and resuspended in Alsever's Solution. Defibrinated bovine blood was obtained from HemoStat Laboratories. All experiments were performed under ambient conditions. NMR spectra were collected using a Bruker Avance III HD 500 spectrometer equipped with a multinuclear Smart Probe. The frequencies of the ^1H and ^11B NMR signals are reported in ppm as chemical shifts from TMS and BF3·Et2O, respectively. Electronic absorption spectra were recorded on VWR UV-6300PC double beam spectrophotometer. […] Each sample was spiked with D2O and analyzed by ^11B NMR spectroscopy. […] The absorbance of this solution was measured from 700 to 350 nm. The subsequent samples were then measured in turn. […] The absorbance corresponding to 100% lysis was confirmed by adding a 10 μL aliquot of freshly resuspended RBCs to 250 μL of hemolysis buffer (0.15 M NH4Cl and 10 mM KHCO3). […]

[4] = Stability of Na2B12I12: human RBCs (11B NMR); assay type: in vitro ADME; details: 24-hour incubation at room temperature with suspension of human RBCs
Source text: as §1

[5] = Stability of Na2B12I12: bovine serum (11B NMR); assay type: in vitro ADME; details: 24-hour incubation at room temperature with bovine serum
Source text: as §1

[6] = Stability of Na2B12I12: bovine blood (11B NMR); assay type: in vitro ADME; details: 24-hour incubation at room temperature with defibrinated bovine blood
Source text: as §1

mice = details: cited from earlier work
cats = details: cited from earlier work

Substance | chemical stability ([1]; heating to 85° C. in 5M NaOH) | chemical stability ([1]; heating to 150° C. in H2SO4) | chemical stability ([1]; treatment with Cl2 gas) | hemolysis ([2]; 100 mM Na2B12I12, no cyclodextrin, human RBCs) | concentrations at which hemolysis is not induced ([2]; Na2B12I12 alone) | concentration of PBS solutions that induce hemolysis ([2]; PBS) | IC50 ([2]; human RBCs in PBS pH 7.4, 10 s exposure, three replicates, read-out: IC50 (proportion of RBCs lysed, absorption of supernatant at 413 nm, logistic regression) (converted)) [mM] | stability (new 11B NMR signals) [3] | stability (new 11B NMR signals) [4] | stability (new 11B NMR signals) [5] | stability (new 11B NMR signals) [6] | toxicity (mice) | toxicity (cats)
closo-dodecaiodododecaborate [B12I12^2−] | unchanged | unchanged | unchanged | – | – | – | – | – | – | – | – | – | –
closo-dodecaiodododecaborate sodium [Na2B12I12] | – | – | – | rapid hemolysis; also recorded: complete hemolysis | below 6 mM | greater than 50 mM | 66.3 | lack of new ^11B NMR signals | no additional signals appear; also recorded: absence of new signals | no additional signals appear; also recorded: absence of new signals | no additional signals appear; also recorded: absence of new signals | toxic | toxic
